These results are taken from patent US20120115896A1, “ISOGENIC HUMAN CELL LINES COMPRISING MUTATED CANCER ALLELES AND PROCESS USING THE CELL LINES” (priority 2008, published 2012).

Assay [1] relates to hTERT-HME1 cells carrying KRAS (G13D) KI. Briefly: Drug assay: cell viability by ATP content (96 h), KI versus parental cells; ΔKI pharmarray analysis. To be noted: for pharmarray: differential response of KRAS mutated cells versus WT: hTERT-HME1, FIG. 5H.
In assay [2] the test system is hTERT-HME1 cells carrying BRAF (V600E) KI. The assay is described as above. As to conditions: for pharmarray: differential response of BRAF mutated cells versus WT: hTERT-HME1, FIG. 5H.
The test system of assay [3] is hTERT-HME1 cells carrying EGFR (delE746-A750) KI. Briefly: Drug assay: cell viability by ATP content (CellTiter-Glo, 96 h), KI versus parental cells; ΔKI pharmarray analysis. For orientation: ATP-based viability assays read luminescence as a measure of living cells.
Assay [4] concerns hTERT-HME1 cells carrying PIK3CA (E545K and H1047R) KI. Briefly: Drug assay: cell viability by ATP content (96 h) and Hoechst/propidium iodide staining, KI versus parental cells; ΔKI pharmarray analysis. To be noted: hTERT-HME1.
For assay [5], the system named is hTERT-HME1 DKI cells carrying PIK3CA (H1047R) and EGFR (delE746-A750). Kind of assay: Drug assay: cell viability by ATP content (96 h), DKI versus parental cells; ΔKI pharmarray analysis.

What is called IC50 is the concentration that inhibits the measured activity by half.

`COc1cc2ncnc(Nc3ccc(F)c(Cl)c3)c2cc1OCCCN1CCOCC1` [gefitinib, Gefitinib]: the “pharmarray: differential response of KRAS mutated cells versus WT” value in assay [1] is recorded as “resistant”. Moreover, the “pharmarray: differential response of BRAF mutated cells versus WT” value in assay [2] was “resistant”.

Regarding `O=c1c(-c2ccc(O)cc2)coc2cc(O)cc(O)c12` [genistein, Genistein], the “pharmarray: differential response of EGFR mutated cells versus WT” value in assay [3] was “EGFR sensitive drug cluster”.

Turning to `COc1ccc2c(c1)c(CC(=O)O)c(C)n2C(=O)c1ccc(Cl)cc1` [indomethacin, Indomethacin], in assay [4] (96 h, ATP assay, Hoechst/propidium iodide, FIG. 19), the “extended analysis of effect on PIK3CA KI versus WT cells (viability, apoptosis)” value is “acts preferentially on cells carrying the PIK3CA mutation with both anti-proliferative and pro-apoptotic effects”. Besides, in assay [4] (FIG. 5G), the “pharmarray: differential response of PIK3CA mutated cells versus WT” value is “unexpectedly active on PIK3CA mutated cells”.

`CC[C@H](C)C(=O)O[C@H]1C[C@@H](C)C=C2C=C[C@H](C)[C@H](CC[C@@H]3C[C@@H](O)CC(=O)O3)[C@H]21` [lovastatin, Lovastatin]: in assay [2], the “pharmarray: differential response of BRAF mutated cells versus WT” value is “more resistant”.

`CC[C@H](C)C(=O)O[C@H]1CCC=C2C=C[C@H](C)[C@H](CC[C@@H]3C[C@@H](O)CC(=O)O3)[C@H]21` [mevastatin, Mevastatin]: the “pharmarray: differential response of BRAF mutated cells versus WT” value in assay [2] is recorded as “more resistant”.

Take `CC(C)c1nc(N(C)S(C)(=O)=O)nc(-c2ccc(F)cc2)c1/C=C/[C@@H](O)C[C@@H](O)CC(=O)O` [rosuvastatin, Rosuvastatin Ca]: the “pharmarray: differential response of BRAF mutated cells versus WT” value in assay [2] was “more resistant”.

For Erlotinib mesylate, the “sensitization in DKI cells containing both EGFR and PIK3CA alterations” value in assay [5] is listed as “abrogates the sensitization seen with the EGFR KI alone”. Further, the “pharmarray: differential response of KRAS mutated cells versus WT” value in assay [1] is “resistant”. Besides, in assay [2], the “pharmarray: differential response of BRAF mutated cells versus WT” value is reported as “resistant”. For the same compound, in assay [3], the “growth inhibition of EGFR delE746-A750 KI versus WT cells” value is listed as “preferentially inhibited the growth” and the “pharmarray: differential response of EGFR mutated cells versus WT” value is reported as “inhibit EGFR mutated cells selectively”. The IC50 in assay [3] (read-out: IC50 values of erlotinib in EGFR mutant cells) was found to be 250 ± 140 nM.

For Sunitinib Maleate, the “ΔKI KRAS” value in assay [1] (Log(M) −4.82), in assay [1] (Log(M) −5.30) and in assay [1] (Log(M) −5.78) was 0 in each case. For the same compound, the figures for the “ΔKI BRAF” value in assay [2] (Log(M) −4.82), in assay [2] (Log(M) −5.30) and in assay [2] (Log(M) −5.78) were 0, 4.42 and 0, respectively.
